{"source": "patent US20190358247A1", "about": "(The Medical College of Wisconsin, Inc., priority 2016, published 2019)", "key": {"[1]": {"tested_on": "MiaPaCa-2 cells", "experiment": "Oxygen consumption rate in intact cells, Seahorse XF96", "type": "cell-based, human", "settings": "for effect on OCR: immediate", "experimental": "(§1) Respiratory enzyme activity in intact and permeabilized cells. The mitochondrial function in intact and permeabilized pancreatic cancer cells was measured using a Seahorse XF96 Extracellular Flux Analyzer (Seahorse Bioscience, North Billerica, Mass., USA). Unless specified otherwise, assays in intact cells were performed as previously described. Measurement of mitochondrial respiratory complexes in permeabilized cells was performed according to the manufacturer's instructions (Seahorse Bioscience). Briefly, intact cells were permeabilized using 1 nM Plasma Membrane Permeabilizer (PMP, Seahorse Bioscience) immediately before oxygen consumption rate (OCR) measurement by XF96. The oxygen consumption derived from mitochondrial complex I or complex II activity was measured by providing different substrates to mitochondria, e.g., pyruvate/malate for complex I and succinate for complex II activity. Rotenone, malonate and antimycin A were used as specific inhibitors of mitochondrial complex I, II and III activities, respectively.\nEffects of Met and Mito-Met analogs on mitochondrial bioenergetics in MiaPaCa-2 cells. The oxygen consumption rate (OCR) and the extracellular acidification rate (ECAR) were measured as a readout of mitochondrial function and glycolysis using a Seahorse Bioscience XF96 extracellular flux analyzer. We compared the immediate OCR changes in response to different concentrations (e.g., IC50 or higher values determined by clonogenic assay) of Met, Mito-Met2, Mito-Met6, Mito-Met10, and phenformin (FIG. 13A).\nNext we monitored the mitochondrial OCR changes in MiaPaCa-2 cells after 24 h treatment with Met, Mito-Met analogs, and phenformin followed by a washout of the treatments and return to fresh cell culture media."}, "[2]": {"tested_on": "AMPK", "experiment": "Immunoblot of phosphorylated AMPK Thr-172 relative to total AMPK, FC1199 cells", "type": "cell-based", "settings": "murine FC1199, 1 μM, 30 min", "experimental": "(§2) In this example, the inventors have shown that the mito-met compounds of the present invention cause an increased AMPK activation in cancer cells. In preliminary experiments (FIG. 4), human MiaPaCa2 and murine FC1199 PDAC cells treated 30 min with 1 μM mito-met (MM), 1 mM Met, or the oligomycin positive control were lysed, and proteins size-separated on SDS-PAGE, transferred to PVDF, and probed with an antibody to phosphorylated AMPK Thr-172.\n(§3) Immunoblotting. MiaPaCa-2 PDAC cells (1×10^6) were plated to 80% confluency in 60 mm dishes and then serum-starved for 5 hours. […] Cells were stimulated with oligomycin as a positive control. After stimulation, cells were washed twice in cold PBS and lysed using a modified RIPA buffer. Lysates were normalized for protein concentration, size separated using reducing SDS-PAGE, electro-transferred to PVDF membranes (Millipore) and then probed using primary and horseradish peroxidase-conjugated secondary antibodies. Antibodies against total or phosphorylated 5′ AMP-activated protein kinase (AMPK) were purchased from Cell Signaling Technology (Danvers, Mass.) and used at the manufacturer's recommended dilutions. Proteins were visualized by chemiluminescence with auto-exposure and quantified by densitometric analysis using the FluorChem HD2 from Cell Biosciences (Santa Clara, Calif.).\n(§4) AMPK activation in Mito-Met and Met-treated PDAC cells. […]"}, "[3]": {"settings": "mouse", "experimental": "In an initial proof-of-concept experiment, syngeneic KPC cells expressing Firefly luciferase (FC1242-luc) were orthotopically implanted to the pancreas of C57BL/6 mice and tumor growth monitored using bioluminescence imaging (FIG. 15F). Mice orthotopically autografted with FC1242-luc cells were treated daily with 1 mg/kg or 150 mg/kg Met, or 1 mg/kg Mito-Met. […] Serum from these animals was collected, and hepatic and kidney toxicity tested using standard AST, ALT, AP, and BUN assays, respectively."}, "[4]": {"tested_on": "HaCaT", "experiment": "IncuCyte cell confluence assay, keratinocytes", "type": "cell-based", "experimental": "IncuCyte Analyzer-real time measurement of cell proliferation. The cell proliferation was measured using a label-free, noninvasive cellular confluence assay by IncuCyte Live-Cell Imaging Systems (Essen Bioscience, Ann Arbor, Mich., USA; IncuCyte FLR). This system enables collection of live cell images at 2 h intervals over several days. The IncuCyte Analyzer provides real-time cellular confluence data based on segmentation of high-definition phase-contrast images. The cell proliferation is expressed as an increase in percentage of cell confluence."}, "[5]": {"tested_on": "FC1242-luc", "experiment": "Orthotopic syngeneic FC1242-luc engraftment model, tumor growth", "type": "in vivo, C57BL/6 mice", "settings": "for in vivo tumor growth compared with Met: 1 mg/kg daily i.p.", "description": "In vivo studies and bioluminescence imaging."}, "[6]": {"target": "mitochondrial complex I (Homo sapiens, UniProt O75251+O75306+P03886)", "sequence (O75306 34-463)": "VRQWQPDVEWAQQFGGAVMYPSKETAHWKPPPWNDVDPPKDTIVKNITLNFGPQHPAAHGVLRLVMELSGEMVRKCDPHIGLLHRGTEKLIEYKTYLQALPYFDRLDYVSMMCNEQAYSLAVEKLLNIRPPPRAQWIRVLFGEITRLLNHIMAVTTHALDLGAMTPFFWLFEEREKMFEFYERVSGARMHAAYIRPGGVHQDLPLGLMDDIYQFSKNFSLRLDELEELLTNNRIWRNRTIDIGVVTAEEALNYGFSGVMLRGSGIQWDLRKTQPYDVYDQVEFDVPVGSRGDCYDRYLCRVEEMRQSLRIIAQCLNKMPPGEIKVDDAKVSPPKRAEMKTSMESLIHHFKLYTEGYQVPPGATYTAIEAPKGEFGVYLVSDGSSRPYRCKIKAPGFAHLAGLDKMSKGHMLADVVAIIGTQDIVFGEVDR", "sequence (O75251 39-213)": "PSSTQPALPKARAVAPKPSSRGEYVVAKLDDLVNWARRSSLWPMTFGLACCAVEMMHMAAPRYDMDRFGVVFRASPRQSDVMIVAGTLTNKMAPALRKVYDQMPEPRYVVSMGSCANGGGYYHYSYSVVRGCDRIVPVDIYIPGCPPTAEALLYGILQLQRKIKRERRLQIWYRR", "sequence (P03886 whole entry)": "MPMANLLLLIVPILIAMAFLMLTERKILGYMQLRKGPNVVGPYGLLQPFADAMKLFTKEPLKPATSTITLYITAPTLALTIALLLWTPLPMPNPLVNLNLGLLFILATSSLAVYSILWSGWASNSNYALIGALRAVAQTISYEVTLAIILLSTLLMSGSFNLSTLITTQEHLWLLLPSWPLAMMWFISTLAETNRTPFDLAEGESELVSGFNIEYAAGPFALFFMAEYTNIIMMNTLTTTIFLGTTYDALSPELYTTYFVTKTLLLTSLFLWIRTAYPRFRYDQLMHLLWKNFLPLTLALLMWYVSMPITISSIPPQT", "sequence (O75489 37-264, further chain)": "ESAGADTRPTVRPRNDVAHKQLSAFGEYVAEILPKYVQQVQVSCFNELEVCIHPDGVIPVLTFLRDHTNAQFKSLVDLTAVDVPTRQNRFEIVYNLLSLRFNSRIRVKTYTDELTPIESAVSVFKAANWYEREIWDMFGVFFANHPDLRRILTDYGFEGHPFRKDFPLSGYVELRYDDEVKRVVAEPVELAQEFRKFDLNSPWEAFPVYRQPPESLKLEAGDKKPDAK", "sequence (P03897 whole entry, further chain)": "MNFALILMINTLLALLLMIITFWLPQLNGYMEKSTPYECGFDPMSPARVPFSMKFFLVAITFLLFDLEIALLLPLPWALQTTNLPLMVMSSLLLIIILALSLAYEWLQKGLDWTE", "experiment": "Complex I oxygen consumption (pyruvate/malate) in permeabilized cells, Seahorse XF96", "type": "cell-based", "experimental": "as §1\nThe oxygen consumption rate was measured using the permeabilized MiaPaCa-2 cells in MAS buffer supplemented with pyruvate. The use of permeabilized cells avoids differences in cellular uptake of compounds. […] We tested the effect of pretreating cells with Mito-Met10 or Met using the permeabilized model. MiaPaCa-2 cells were treated with Met and Mito-Met10 for 24 h and the oxygen consumption studies were performed in these cells after permeabilization."}, "[7]": {"tested_on": "AMPK", "experiment": "Immunoblot of phosphorylated AMPK Thr-172 relative to total AMPK, MiaPaCa-2 cells", "type": "cell-based, human", "experimental": "as §2, §3, §4"}, "[8]": {"tested_on": "MCF-10A cells", "experiment": "Radiosensitization, clonogenic survival after X-radiation, normal cells", "type": "cell-based", "settings": "1 μM, 24 h pretreatment", "experimental": "Radiation experiments. […] The cells were then treated with X-radiation at a dose of 0, 2, 4, and 6 Gy. The control cells were treated with the same concentration of vehicle (0.1% DMSO) where appropriate. After irradiation, cells were suspended and seeded at various densities (100-8,000 cells per well) in 6-well plates for clonogenic assay as described above. The plates were kept within the incubator and media changed every 3-4 days for 2 weeks. Wells with 10-50 sufficiently large clones were chosen for calculating the cell survival fractions.\nEffect of Mito-Met and Met on PDAC radiosensitivity. Both control cells and cells were pretreated for 24 h with 1 mM Met or Mito-Met (1 μM) prior to X-radiation. Cell survival was measured by a clonogenic assay."}}, "note": "Values joined by “and” are separate entries in the source; they are usually repeats but may differ in a detail not shown here. Equal values may be shown once."}
{"smiles": "Br.N=C(N)NC(=N)NCCCCCCCCCC[P+](c1ccccc1)(c1ccccc1)c1ccccc1", "note": "[Mito-Met10]", "values": [{"measurement": "concentration at which OCR was inhibited", "setting": "[1]; 24 h treatment, washout", "result": 1, "unit": "µM"}, {"measurement": "effect on OCR", "setting": "[1]; 1 μM", "result": "did not inhibit OCR"}, {"measurement": "effect on OCR", "setting": "[1]; ≈10 μM", "result": "slight inhibition"}, {"measurement": "increase in active AMPK (phosphorylated relative to total protein)", "setting": "[2]", "result": "1.5-2.5 fold"}, {"measurement": "toxicity in vivo (hepatic and kidney)", "setting": "[3]", "result": "neither Met nor the mitochondria-targeted analog Mito-Met elicited toxicity"}, {"measurement": "Kidney BUN", "setting": "[3]; in vivo, 1 mg/kg", "result": "27 ± 4", "unit": "mg/dL"}, {"measurement": "Liver ALT", "setting": "[3]; in vivo, 1 mg/kg", "result": "26 ± 10", "unit": "IU/L"}, {"measurement": "Liver AST", "setting": "[3]; in vivo, 1 mg/kg", "result": "89 ± 16", "unit": "IU/L"}, {"measurement": "effect on cell confluence", "setting": "[4]", "result": "not significantly affected"}, {"measurement": "in vivo tumor growth compared with Met", "setting": "[5]", "result": "considerably more potent than Met"}, {"measurement": "in vivo tumor growth compared with Met", "setting": "[5]; listed as Mito-Met", "result": "considerably more effective than Met"}, {"measurement": "therapeutic index relative to Met", "setting": "[5]; mouse, in vivo", "result": "~1,000 fold"}, {"measurement": "times more effective than Met in abrogating PDAC tumor growth", "setting": "[5]; mouse, in vivo", "result": "at least 100 times"}, {"measurement": "concentration giving significant decrease in OCR (complex I inhibition)", "setting": "[6]; 24 h treatment, then permeabilized", "result": 0.75, "unit": "µM"}, {"measurement": "fold more effective than Met in inhibiting complex I-mediated oxygen consumption", "setting": "[6]; MiaPaCa-2", "result": "2,000 fold"}, {"measurement": "IC50", "setting": "[6]; read-out: IC50, mitochondrial complex I-mediated oxygen consumption, MiaPaCa-2, 24 h pretreatment, then permeabilized", "result": "400 nM and ~430 nM"}, {"measurement": "potency of AMPK activation relative to metformin", "setting": "[7]; MiaPaCa-2", "result": "~1,000 fold"}, {"measurement": "increase in active AMPK (phosphorylated relative to total protein)", "setting": "[7]; human MiaPaCa-2, 1 μM, 30 min", "result": "1.5-2.5 fold"}, {"measurement": "radiosensitivity in normal cells", "setting": "[8]", "result": "no radiosensitivity was observed"}]}
